The term inhibition denotes the drop in the measured response relative to a control, in per cent. One may read the IC50 as the concentration at which inhibition is half-maximal.

In the test the target is T1, human oxytocin receptor (Homo sapiens, UniProt P30559).
T1 sequence (P30559 1-389): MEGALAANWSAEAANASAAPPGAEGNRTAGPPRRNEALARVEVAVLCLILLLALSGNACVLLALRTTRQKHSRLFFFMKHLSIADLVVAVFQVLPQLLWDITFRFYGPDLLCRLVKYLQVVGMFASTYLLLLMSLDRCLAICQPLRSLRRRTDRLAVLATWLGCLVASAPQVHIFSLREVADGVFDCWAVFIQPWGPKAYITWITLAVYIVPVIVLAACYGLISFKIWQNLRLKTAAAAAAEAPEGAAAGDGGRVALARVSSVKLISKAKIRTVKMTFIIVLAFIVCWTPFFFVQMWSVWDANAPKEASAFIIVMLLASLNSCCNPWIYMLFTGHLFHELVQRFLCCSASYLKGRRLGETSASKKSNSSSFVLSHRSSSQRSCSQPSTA
Put plainly: Oxytocin binding in CHO cell membranes expressing human oxytocin receptors. The note with it: [3H]oxytocin; for OT % inhibition at 100 nM / inhibition at 0.1 µM: 100 nM; for inhibition at 0.1 µM: read-out: OT % inhibition at 100 nM; for IC50: value in parentheses, read-out: OT (IC50). An excerpt:
Oxytocin Binding in Chinese Hamster Ovary Cell Membranes Expressing Human Oxytocin Receptors
Chinese Hamster Ovary (CHO) cells stably transfected with the human oxytocin receptor (cf. Tanizawa et al., U.S. Pat. No. 5,466,584 (1995) to Rohto Pharmaceutical Co. Ltd., Osaka, Japan) were obtained from M. Thibonnier, Case Western Reserve University School of Medicine, Cleveland, Ohio. A. Passaging and Amplification of Cells: CHO cells transfected with the human oxytocin receptors obtained from M. Thibonnier (pcDNA3.1 vector) are allowed to grow to confluency (approx. >90%) in T-150 flasks under sterile conditions, in a cell culture medium of F-12 Nutrient Mixture (HAM) with L-glutamine (Gibco Cat. # 11765-054) containing 15 mM HEPES (Gibco Cat. # 15630-080), 1% antibiotic/antimycotic (add 5 mL 100×, Gibco Cat. # 15240-062 per 500 mL F-12), 400 μg/mL of Geneticin (add 4 mL of 50 mg/mL per 500 mL F-12) and 10% Fetal Bovine Serum (Qualified, heat inactivated, Gibco Cat. # 16140-063). The medium is removed by aspiration and the cells are washed with 10 mL of Hank's Balanced Salt solution (Gibco Cat. # 14175-095). The salt solution is removed by aspiration and the cells trypsinized with 5 mL of trypsin-EDTA (0.05% trypsin, 0.53 mM EDTA-4Na, Gibco Cat. # 25300-070) for 1 min The trypsin is removed by aspiration and the cells dislodged by tapping. Cell Culture medium (e.g. 30 mL for 1:30 split) is immediately added and mixed well to inactivate trypsin. 1 mL of detached cells is added to new culture flasks containing fresh Cell Culture medium (e.g. into 25 mL per T-150 flask), and mixed gently. The cells are incubated at 37° C. in 5% CO2. The medium is changed at 3 to 4 days interval (or as appropriate). The cells grow to confluency (approx. >75%–95%) within 7–8 days. All steps are done under sterile conditions. B. Membrane Preparation: The cells are washed twice gently with Hank's Balanced Salt solution (eg, use 10 mL per T-150 flask). The excess solution is removed and the cells bathed for 15–30 min. in an enzyme-free Cell Dissociation Buffer (eg, use 8 mL Hank's Based, Gibco Cat. # 13150-016 per T-150 flask) until cells are loosened. The contents are transferred to centrifuge tubes (50 mL size) kept in ice bath. All subsequent steps are done at 4° C. The tubes are centrifuged at 300×g for 15 min (1380 rpm on SORVAL, Model RT6000D, using rotor for 50 mL tubes). The supernatant is discarded and the cells suspended in homogenizing buffer (10 mM Tris-HCl containing 0.25 M sucrose and 1 mM EDTA, pH 7.4) ensuring that the volume of the buffer is about ten times the volume of the cell pellet. The cells are pooled into a centrifuge tube (50 mL) and homogenized with a Polytron at setting 6 for 10 sec. The homogenate is transferred into a Potter-Elvjehm homogenizer and homogenized with 3 strokes. The homogenate is centrifuged at 1500×g for 10 min at 4° C. (3100 rpm using SORVAL, model RT6000D, using rotor for 50 mL tubes). The pellet is discarded. The supernatant is centrifuged at 100,000×g for 60 min. at 4° C. (Beckman L8-80M ultracentrifuge; spin at 37,500 rpm with rotor type 70 Ti for 50 mL tubes; 38,000 rpm with type 80Ti for 15 mL tubes; or 35,800 rpm with rotor type 45Ti). The supernantant is discarded and the pellet suspended in 3 to 4 mL of Tris buffer (50 mM TRIS-HCl, pH 7.4). The protein content is estimated by the Bradford or Lowry method. The volume of the membrane suspension is adjusted with the membrane buffer (50 mM Tris-HCl containing 0.1% BSA and 0.1 mM PMSF) to give 3.0 mg/mL (or as appropriate) of protein. The membranes are aliquoted and stored at −70° C. C. Radioligand Binding Assay: In wells of a 96-well format microtiter plate, is added 90, 110 or 130 μL (to make up a final volume of 200 μL) of assay buffer containing 50 mM of Tris-HCl (pH 7.4), […], 1 mg % aprotinin, 1 mg % leupeptin, 2 mg % 1,10-phenanthroline, 10 mg % trypsin inhibitor, and 0.1 mM PMSF. […]

For the molecule `O=C(c1ccc2n1Cc1ccccc1N(C(=O)c1ccc(C3CCCCC3)cc1)C2)N1CCN(c2ccncc2)CC1` [Example 54, [10-(4-Cyclohexyl-benzoyl)-10,11-dihydro-5H-pyrrolo[2,1-c][1,4]benzpdiazepin-3-yl][4-(4-pyridinyl)-1-piperazinyl]-methanone], the “OT % inhibition at 100 nM” value is given as 4%.
For `COC(=O)c1ccc2c(c1)N(C(=O)c1ccc(C3CCCCC3)cc1)Cc1ccc(C(=O)N3CCN(C)CC3)n1C2.Cl` [Example 1, Methyl 10-(4-cyclohexylbenzoyl)-3-[(4-methyl-1-piperazinyl)carbonyl]-10,11-dihydro-5H-pyrrolo[2,1-c][1,4]benzodiazepine-8-carboxylate hydrochloride salt], the inhibition at 0.1 µM is 14%.
In the case of `CC(C)(C)c1ccc(C(=O)c2ccc3n2Cc2ccccc2N(C(=O)c2ccc(C4CCCCC4)cc2)C3)cc1` [Example 5, [4-(tert-Butyl)phenyl][10-(4-cyclohexyl-benzoyl)-10,11-dihydro-5H-pyrrolo[2,1-c][1,4]benzodiazepin-3-yl]methanone], the inhibition at 0.1 µM was 46%.
On the same count and under the same terms, with `CN(C)CCN(C)C(=O)c1ccc2n1Cc1ccccc1N(C(=O)c1ccc(C3CCCCC3)cc1)C2` [Example 34, 10-(4-Cyclohexyl-benzoyl)-N-[2-(dimethylamino)-ethyl]-N-methyl-10,11-dihydro-5H-pyrrolo[2,1-c][1,4]benzodiazepine-3-carboxamide] the figure was -5%.
Turning to `O=C(c1ccc2n1Cc1ccccc1N(C(=O)c1ccc(C3CCCCC3)cc1)C2)N1CCN(c2ncccn2)CC1` [Example 23], the IC50 amounted to 41.8 nM.
`CC(=NNC(=O)c1ccc2n1Cc1ccccc1N(C(=O)c1ccc(C3CCCCC3)cc1)C2)N(C)C` [Example 9, N′-{[10-(4-Cyclohexyl-benzoyl)-10,11-dihydro-5H-pyrrolo[2,1-c][1,4]benzodiazepin-3-yl]carbonyl}-N,N-dimethylethanehydrazonamide]: the IC50 was 35.4 nM.
For `CN1CCCC1CCNC(=O)c1ccc2n1Cc1ccccc1N(C(=O)c1ccc(C3CCCCC3)cc1)C2` (stereo not shown) [Example 38, 10-(4-Cyclohexyl-benzoyl)-N-[2-(1-methyl-2-pyrrolidinyl)ethyl]-10,11-dihydro-5H-pyrrolo[2,1-c][1,4]benzodiazepine-3-carboxamide], the inhibition at 0.1 µM is 57%.
Consider `CN(C)CCCNC(=O)c1ccc2n1Cc1ccccc1N(C(=O)c1ccc(C3CCCCC3)cc1)C2` [Example 33, 10-(4-Cyclohexyl-benzoyl)-N-[3-(dimethylamino)propyl]-10,11-dihydro-5H-pyrrolo[2,1-c][1,4]benzodiazepine-3-carboxamide], for which the inhibition at 0.1 µM is 66%.
Turning to `CN1CCN(C(=O)c2ccc3n2Cc2ccccc2N(C(=O)c2ccc(C4CCCCC4)cc2)C3)CC1` [Example 24, [10-(4-Cyclohexyl-benzoyl)-10,11-dihydro-5H-pyrrolo[2,1-c][1,4]benzodiazepin-3-yl](4-methyl-1-piperazinyl)-methanone], the IC50 turned out to be 18.3 nM.
Regarding `CN1CCN(C(=O)C(=O)c2ccc3n2Cc2ccccc2N(C(=O)c2ccc(C4CCCCC4)cc2)C3)CC1` [Example 32, 1-[10-(4-Cyclohexyl-benzoyl)-10,11-dihydro-5H-pyrrolo[2,1-c][1,4]benzodiazepin-3-yl]-2-(4-methyl-1-piperazin-1-yl)-1,2-ethane-1,2-dione], the “OT % inhibition at 100 nM” value was 87%.
For the molecule `CN(C)CCCN1CCN(C(=O)c2ccc3n2Cc2ccccc2N(C(=O)c2ccc(C4CCCCC4)cc2)C3)CC1` [Example 45, [10-(4-Cyclohexyl-benzoyl)-10,11-dihydro-5H-pyrrolo[2,1-c][1,4]benzodiazepin-3-yl]{4-[3-(dimethylamino)propyl]-1-piperazinyl}methanone], the inhibition at 0.1 µM was determined as 71%.
On to `CN1CCN(C(=O)c2ccc3n2Cc2ccc(C(=O)O)cc2N(C(=O)c2ccc(C4CCCCC4)cc2)C3)CC1` [Example 3, 10-(4-Cyclohexyl-benzoyl)-3-[(4-methyl-1-piperazinyl)carbonyl]-10,11-dihydro-5H-pyrrolo[2,1-c][1,4]benzodiazepine-8-carboxylic acid], for which the inhibition at 0.1 µM is -2%.
For `CN(C)CCCN(C)C(=O)c1ccc2n1Cc1ccccc1N(C(=O)c1ccc(C3CCCCC3)cc1)C2` [Example 35, 10-(4-Cyclohexyl-benzoyl)-N-[3-(dimethylamino)propyl]N-methyl-10,11-dihydro-5H-pyrrolo[2,1-c][1,4]benzodiazepine-3-carboxamide], the inhibition at 0.1 µM amounted to 55%.
As to `Cc1cccc(C(=O)NNC(=O)c2ccc3n2Cc2ccccc2N(C(=O)c2ccc(C4CCCCC4)cc2)C3)c1` [Example 14, 10-(4-Cyclohexyl-benzoyl)-N′-(3-methyl-benzoyl)-10,11-dihydro-5H-pyrrolo[2,1-c][1,4]benzodiazepine-3-carbonyl-hydrazide], the “OT % inhibition at 100 nM” value is on record as 53%.
Take `CN(CCc1ccccn1)C(=O)c1ccc2n1Cc1ccccc1N(C(=O)c1ccc(C3CCCCC3)cc1)C2` [Example 52, 10-(4-Cyclohexyl-benzoyl)-N-methyl-N-[2-(2-pyridinyl)-ethyl]-10,11-dihydro-5H-pyrrolo[2,1-c][1,4]benzodiazepine-3-carboxamide]: the inhibition at 0.1 µM stood at 45%.
Turning to `O=C(c1ccc2n1Cc1ccccc1N(C(=O)c1ccc(C3CCCCC3)cc1)C2)N1CCC(N2CCCC2)CC1` [Example 25, [10-(4-Cyclohexyl-benzoyl)-10,11-dihydro-5H-pyrrolo[2,1-c][1,4]benzodiazepin-3-yl][4-(1-pyrrolidinyl)-1-piperidinyl]methanone], the half-inhibitory concentration (IC50) came out at 13.2 nM.
On to `O=C(c1ccc(C2CCCCC2)cc1)N1Cc2ccc(C(=O)N3CCC[C@H]3CN3CCCC3)n2Cc2ccccc21` [Example 46, [10-(4-Cyclohexyl-benzoyl)-10,11-dihydro-5H-pyrrolo[2,1-c][1.4]benzodiazepin-3-yl][(2S)-2-(1-pyrrolidinylmethyl)pyrrolidinyl]methanone], for which the “OT % inhibition at 100 nM” value is on record as 91%.
Take `NC(=O)c1ccc2n1Cc1ccccc1N(C(=O)c1ccc(C3CCCCC3)cc1)C2` [Example 16, 10-(4-Cyclohexyl-benzoyl)-10,11-dihydro-5H-pyrrolo[2,1-c][1,4]benzodiazepin-3-carboxamide]: the IC50 was 133 nM.
As to `CN(C)C=NNC(=O)c1ccc2n1Cc1ccccc1N(C(=O)c1ccc(C3CCCCC3)cc1)C2` [Example 10, N′-{[10-(4-Cyclohexyl-benzoyl)-10,11-dihydro-5H-pyrrolo[2,1-c][1.4]benzodiazepin-3-yl]carbonyl}-N,N-dimethylhydrazonoformamide], the IC50 was 75.7 nM.

The values are drawn from US7202239B2, “Cyclohexylphenyl carboxamides tocolytic oxytocin receptor antagonists” (Wyeth, priority 2001, dated 2007).
